Test system: patient suffering from hyperhidrosis
Experiment: Oral sulpiride given to a patient suffering from hyperhidrosis
Format: in vivo, human
Conditions: 200 mg daily
Procedure: A dose of 200 mg Sulpiride was administered to a patient suffering from hyperhidrosis.

## CCN1CCCC1CNC(=O)c1cc(S(N)(=O)=O)ccc1OC (stereo not drawn) [Sulpiride, N-[(1-ethylpyrrolidin-2-yl)methyl]-2-methoxy-5-sulfamoyl-benzamide]
  duration of reduction in sweating: lasted for as long as the patient took a daily pill
  effect on sweating: reduction in sweating
  onset of reduction in sweating after beginning taking the drug: 72 h

— US10010494B2, “Methods for the treatment of hyperhidrosis” (priority 2005, dated 2018)
